Measured values from patent publication US20150057443A1, “Cycloalkyl Amine Compounds” (Prexa Pharmaceuticals, Inc., priority 2013, published 2015).
Read-outs that look alike come from different tables or passages of the source.

What was measured:
human recombinant DAT = human recombinant DAT (Homo sapiens, UniProt Q01959); assay: DAT radioligand binding assay (scintillation proximity, [3H]WIN-35428)
Procedure: (§1) Affinity of the compounds for monoamine transporters was determined by in vitro radioligand binding assays using cell membrane preparations derived from HEK293 cell lines stably expressing human recombinant DAT, NET or SERT receptor (Suven Life Sciences, Hyderabad, India).
(§2) Stable DAT cell lines were generated following procedures described in Eshelman et al., Molecular Pharmacology 45, 312-316; 1994. Stable NET cell lines were generated following procedures described in Pacholczyk et al., Nature 350, 350-354, 1991 and Galli et al., Journal Exp. Biol. 198, 2197-2212, 1995. Stable SERT cell lines were generated following procedures described in Ramamoorthy et al., Proc Natl Acad Sci USA 90, 2542-246, 1993.
(§3) Cell membranes were obtained from the above-referenced cell lines by manually homogenizing previously frozen cell pellets in Tris-HCl buffer and serially centrifugating and re-extracting the preparations according procedures described in Subbu et al., Journal Pharmacol ExpTher 327, 982-990, 2008.
(§4) A scintillation proximity assay was used to measure receptor binding. Homogenized membrane preparations (final protein concentration 8-15 ug/well) were pre-incubated with WGA PVT SPA beads (0.5 mg/well) for 5 minutes. Binding was initiated by adding high affinity ligands and test compounds (0.1 nM to 10 μM) or reference/positive control ligands to the membrane-bead complex. Plates were incubated for three hours and raw data counts recorded using a liquid scintillation counter (MicroBetaTriLux Counter, Perkin Elmer). Inhibition constants (Ki) were calculated using GraphPad Prism software (version 4.0).
DAT receptor binding was determined using procedures described in Skolnick et al., European Journal of Pharmacology, 461(2-3):99-104, 2003; and Eshleman et al., The Journal of Pharmacology and Experimental Therapeutics 289:877-885, 1999. A mixture of [3H]WIN-35428 (N-methyl 3H-WIN-35428, Perkin Elmer) and bead-membrane complex was added to wells containing test compound. Wells containing nomifensine maleate ([…], Sigma) were used to define non-specific […] binding. Total radioligand was defined by assay buffer containing 1% DMSO in the presence of [3H]WIN-35428. DAT Ki values were calculated using GraphPad Prism software (version 4.0).

human recombinant NET = molecular target: T1, human recombinant NET (Homo sapiens, UniProt P23975); assay: NET radioligand binding assay (scintillation proximity, [3H]nisoxetine)
T1 construct: membranes)
T1 sequence (P23975 whole entry): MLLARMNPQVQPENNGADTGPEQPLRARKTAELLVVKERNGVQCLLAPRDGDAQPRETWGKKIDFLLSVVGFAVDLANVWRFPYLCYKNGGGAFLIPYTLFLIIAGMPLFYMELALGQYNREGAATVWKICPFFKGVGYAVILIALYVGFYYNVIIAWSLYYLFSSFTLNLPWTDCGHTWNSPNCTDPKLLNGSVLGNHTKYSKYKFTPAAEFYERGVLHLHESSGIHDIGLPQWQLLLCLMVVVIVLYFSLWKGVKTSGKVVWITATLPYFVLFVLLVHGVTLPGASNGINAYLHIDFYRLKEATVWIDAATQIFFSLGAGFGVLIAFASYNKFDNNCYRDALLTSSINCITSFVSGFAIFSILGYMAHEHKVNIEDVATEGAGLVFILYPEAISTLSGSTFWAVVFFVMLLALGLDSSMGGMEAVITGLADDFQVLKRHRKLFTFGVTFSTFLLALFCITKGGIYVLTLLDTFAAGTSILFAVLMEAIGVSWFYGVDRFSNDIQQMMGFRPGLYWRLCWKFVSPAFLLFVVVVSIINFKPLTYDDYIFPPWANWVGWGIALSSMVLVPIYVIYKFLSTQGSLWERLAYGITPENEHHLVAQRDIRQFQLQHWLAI
Procedure: as §1, §2, §3, §4
NET receptor binding was determined using procedures described in Mason et al., The Journal of Pharmacology and Experimental Therapeutics 323:720-729, 2007; and Eshleman et al., The Journal of Pharmacology and Experimental Therapeutics289:877-885, 1999. A mixture of [3H]nisoxetine hydrochloride (N-methyl-[3H]nisoxetine, Perkin Elmer) and bead-membrane complex was added to wells containing test compound. Wells containing unlabeled nisoxetine (100 uM, Sigma) were used to define non-specific NET binding. Total radioligand was defined using assay buffer containing 1% DMSO in the presence of [3H]nisoxetine. NET Ki values were calculated using GraphPad Prism software (version 4.0).

human recombinant SERT = molecular target: T2, human recombinant SERT (Homo sapiens, UniProt P31645); assay: SERT radioligand binding assay (scintillation proximity, [3H]citalopram)
T2 construct: membranes)
T2 sequence (P31645 whole entry): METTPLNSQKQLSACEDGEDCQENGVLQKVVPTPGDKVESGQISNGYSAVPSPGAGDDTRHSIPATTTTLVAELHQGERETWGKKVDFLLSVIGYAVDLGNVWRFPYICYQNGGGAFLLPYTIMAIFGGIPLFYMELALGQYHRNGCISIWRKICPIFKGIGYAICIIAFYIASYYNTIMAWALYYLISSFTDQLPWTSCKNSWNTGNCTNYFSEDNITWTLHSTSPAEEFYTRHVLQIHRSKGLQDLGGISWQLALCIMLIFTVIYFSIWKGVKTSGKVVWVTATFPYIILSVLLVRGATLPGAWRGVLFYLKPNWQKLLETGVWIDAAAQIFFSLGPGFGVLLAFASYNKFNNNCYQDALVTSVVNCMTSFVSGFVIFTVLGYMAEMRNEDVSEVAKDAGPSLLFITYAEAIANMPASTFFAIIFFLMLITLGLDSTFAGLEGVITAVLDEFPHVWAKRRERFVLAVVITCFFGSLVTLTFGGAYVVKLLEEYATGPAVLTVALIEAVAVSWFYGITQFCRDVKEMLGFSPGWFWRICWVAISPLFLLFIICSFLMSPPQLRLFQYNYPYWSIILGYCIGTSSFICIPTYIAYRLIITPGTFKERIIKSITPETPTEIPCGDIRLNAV
Procedure: as §1, §2, §3, §4
SERT receptor binding was determined using procedures described in Owens et al., The Journal of Pharmacology and Experimental Therapeutics 283:1305-1322, 1997. A mixture of [3H]citalopram (N-methyl-[3H]citalopram, Perkin Elmer) and bead-membrane complex was added to wells containing test compound. Non-specific binding was determined using wells containing venlafaxine hydrochloride (100 uM, Sigma). Total radioligand was determined using assay buffer containing 1% DMSO in the presence of [3H]citalopram. SERT Ki values were calculated using GraphPad Prism software (version 4.0).

[1] = HEK293 cell membranes expressing human recombinant NET, [3H]nisoxetine, SPA, read-out: NET Ki
[2] = HEK293 cell membranes expressing human recombinant SERT, [3H]citalopram, SPA, read-out: SERT Ki
[3] = HEK293 cell membranes expressing human recombinant DAT, [3H]WIN-35428, SPA, read-out: DAT Ki

Chain of human recombinant DAT (Q01959 whole entry): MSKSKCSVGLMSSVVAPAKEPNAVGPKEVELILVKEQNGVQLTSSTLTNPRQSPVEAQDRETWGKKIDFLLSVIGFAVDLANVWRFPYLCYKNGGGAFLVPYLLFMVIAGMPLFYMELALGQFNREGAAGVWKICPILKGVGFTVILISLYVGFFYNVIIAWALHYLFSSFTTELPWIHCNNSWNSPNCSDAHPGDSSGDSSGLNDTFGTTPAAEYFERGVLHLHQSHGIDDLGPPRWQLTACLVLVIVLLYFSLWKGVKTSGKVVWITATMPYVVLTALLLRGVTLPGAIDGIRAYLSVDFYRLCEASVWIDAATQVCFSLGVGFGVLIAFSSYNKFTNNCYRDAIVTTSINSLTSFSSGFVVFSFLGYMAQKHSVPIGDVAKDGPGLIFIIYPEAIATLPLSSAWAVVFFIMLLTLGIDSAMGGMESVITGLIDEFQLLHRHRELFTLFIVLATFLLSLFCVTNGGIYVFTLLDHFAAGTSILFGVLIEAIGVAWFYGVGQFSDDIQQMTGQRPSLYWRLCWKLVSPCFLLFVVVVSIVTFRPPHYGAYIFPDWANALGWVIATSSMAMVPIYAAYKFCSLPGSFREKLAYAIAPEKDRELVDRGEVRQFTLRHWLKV

| Compound | Ki (human recombinant DAT) [nM] | Ki (human recombinant NET; [1]) [nM] | Ki (human recombinant SERT; [2]) [nM] | Ki (human recombinant DAT; [3]) [nM] | Ki (human recombinant NET) [nM] | Ki (human recombinant SERT) [nM] |
| --- | --- | --- | --- | --- | --- | --- |
| COC1CCCN(CC(O)C2(c3ccc(Cl)c(Cl)c3)CCC2)C1 (stereo not drawn) [Compound 33, 1-{2-[1-(3,4-Dichlorophenyl)cyclobutyl]-2-hydroxyethyl}-3-methoxypiperidin-1-ium chloride] | < 10 | 101 to 500 | > 500 |  |  |  |
| O=C(CN1CCCCC1)C1(c2ccc(Cl)c(Cl)c2)CCC1 [Compound 67] | 11 to 100 | > 500 | 101 to 500 |  |  |  |
| 1-{2-[1-(3-Chlorophenyl)cyclobutyl]-2-hydroxyethyl}-3,3-dimethylpiperidin-1-ium chloride [Compound 11] |  | > 500 | > 500 | > 500 |  |  |
| O=C(CN1CCCCC1)C1(c2cccc(Cl)c2)CCC1 [Compound 69] | > 500 | > 500 | > 500 |  |  |  |
| OC(CN1CCCCC1)C1(c2ccc3ccccc3c2)CCC1 (stereo not drawn) [Compound 15, 1-{2-hydroxy-2-[1-(naphthalen-2-yl)cyclobutyl]ethyl}piperidin-1-ium chloride] | 11 to 100 | 11 to 100 | 101 to 500 |  |  |  |
| OC(CN1CC2CCC1C2)C1(c2ccc(Cl)c(Cl)c2)CCC1 (stereo not drawn) [Compound 25, 2-{2-[1-(3,4-Dichlorophenyl)cyclobutyl]-2-hydroxyethyl}-2-azabicyclo[2.2.1]heptan-2-ium chloride] | 11 to 100 | 11 to 100 | 101 to 500 |  |  |  |
| c1ccc(C2(CN3CCCCC3)CCC2)cc1 [Compound 4, 1-[(1-phenylcyclobutyl)methyl]piperidin-1-ium chloride] | > 500 | > 500 | > 500 |  |  |  |
| OC(CNC1CC1)C1(c2ccc(Cl)c(Cl)c2)CCC1 (stereo not drawn) [Compound 35, N-{2-[1-(3,4-Dichlorophenyl)cyclobutyl]-2-hydroxyethyl}cyclopropanaminium chloride] | 11 to 100 | 101 to 500 | > 500 |  |  |  |
| Clc1ccc(C2(CN3CCCCC3)CCC2)cc1 [Compound 1] | 101 to 500 | > 500 | > 500 |  |  |  |
| CC(O)(CN1CCCCC1)C1(c2ccc(Cl)c(Cl)c2)CCC1 (stereo not drawn) [Compound 71, 1-{2-[1-(3,4-dichlorophenyl)cyclobutyl]-2-hydroxypropyl}piperidin-1-ium chloride] | 11 to 100 | 101 to 500 | > 500 |  |  |  |
| O=C(CN1CCCCC1)C1(c2ccc(Cl)cc2)CCC1 [Compound 66] |  |  |  | > 500 | > 500 | > 500 |
| OC(CN1CC2CC1CO2)C1(c2ccc(Cl)c(Cl)c2)CCC1 (stereo not drawn) [Compound 27, 5-{2-[1-(3,4-Dichlorophenyl)cyclobutyl]-2-hydroxyethyl}-2-oxa-5-azabicyclo[2.2.1]heptan-5-ium chloride] | 11 to 100 | 101 to 500 | > 500 |  |  |  |
| OC(CN1CCOCC1)C1(c2ccc(Cl)c(Cl)c2)CCC1 (stereo not drawn) [Compound 30, 4-{2-[1-(3,4-Dichlorophenyl)cyclobutyl]-2-hydroxyethyl}morpholin-4-ium chloride] | 11 to 100 | > 500 | > 500 |  |  |  |
| O=C(CN1CCCCC1)C1(c2ccccc2)CCC1 [Compound 68, 1-[2-oxo-2-(1-phenylcyclobutyl)ethyl]piperidin-1-ium chloride] | > 500 | > 500 | > 500 |  |  |  |
| CC(C)NCC(O)C1(c2ccc(Cl)c(Cl)c2)CCC1 (stereo not drawn) [Compound 19, {2-[1-(3,4-dichlorophenyl)cyclobutyl]-2-hydroxyethyl}(propan-2-yl)azanium chloride] | 11 to 100 | 11 to 100 | 101 to 500 |  |  |  |
| Clc1cccc(C2(CN3CCCCC3)CCC2)c1 [Compound 2] | > 500 | > 500 | > 500 |  |  |  |
